# What was measured:
# rat [1] = settings: Multigenerational reproductive toxicity study, wistar, Oral, Feed, dose end: 4 generation
# rat [2] = settings: Prenatal developmental toxicity study, sprague dawley, Oral, Gavage/Intubation, dose end: 19 GD
# rat [3] = settings: Prenatal developmental toxicity study, wistar, Oral, Gavage/Intubation, dose end: 15 GD
# rabbit [4] = settings: Prenatal developmental toxicity study, new zealand white, Oral, Gavage/Intubation, dose end: 18 GD
# rabbit [5] = settings: Prenatal developmental toxicity study, new zealand white, Dermal, Topical, dose end: 19 GD
# rabbit [6] = settings: Prenatal developmental toxicity study, other, Oral, Gavage/Intubation, dose end: 18 GD
# [7] = group: offspring, developmental / developmental malformation / bone / absent + developmental / developmental malformation / bone / incomplete ossification + …
# [8] = group: offspring, systemic / in life observation / body weight / offspring (pup) weight gain
# [9] = group: parental, systemic / in life observation / body weight / body weight gain
# [10] = group: reproductive, reproductive / reproductive performance / fertility / fertility + reproductive / reproductive performance / pregnancy / pregnancy
# [11] = group: reproductive, reproductive / reproductive performance / fertility / fertility + reproductive / reproductive performance / pregnancy / pregnancy + …
# [12] = group: developmental, developmental / developmental malformation / bone / bipartite ossification + developmental / developmental malformation / bone / …
# [13] = group: maternal, systemic / in life observation / body weight / body weight + systemic / in life observation / clinical signs / abnormal gait + systemic / in…
# [14] = group: developmental, developmental / developmental malformation / general / [other]
# [15] = group: maternal, systemic / in life observation / body weight / body weight + systemic / in life observation / food consumption / food consumption
# [16] = group: developmental, developmental / developmental malformation / bone / [other] + developmental / developmental malformation / bone / curled + developmental / …
# [17] = group: maternal, systemic / in life observation / body weight / body weight gain
# [18] = group: maternal, systemic / in life observation / body weight / body weight gain + reproductive / reproductive performance / aborted / aborted + reproductive…
# [19] = group: developmental, developmental / developmental malformation / innominate artery / [other]
# [20] = group: developmental, systemic / in life observation / body weight / fetal weight
# [21] = group: maternal, systemic / in life observation / body weight / body weight + systemic / in life observation / body weight / body weight gain + reproductive…
# [22] = group: maternal, systemic / in life observation / body weight / body weight + systemic / in life observation / body weight / body weight gain + systemic / in…
structure (smiles),measurement,setting,value
"CC(O)CCO (configuration not stated) [1,3-Butanediol]",LOAEL,rat [1]; [7],> 12000 mg/kg/day
same,NOAEL,rat [1]; [7],≥ 12000 mg/kg/day
same,LEL,rat [1]; [8],2500 mg/kg/day
same,NEL,rat [1]; [8],< 2500 mg/kg/day
same,LEL,rat [1]; [9],2500 mg/kg/day
same,LOAEL,rat [1]; [9],> 12000 mg/kg/day
same,NEL,rat [1]; [9],< 2500 mg/kg/day
same,NOAEL,rat [1]; [9],≥ 12000 mg/kg/day
same,LEL,rat [1]; [10],2500 mg/kg/day
same,NEL,rat [1]; [10],< 2500 mg/kg/day
same,LOAEL,rat [1]; [11],> 12000 mg/kg/day
same,NOAEL,rat [1]; [11],≥ 12000 mg/kg/day
"OC(CCl)CCl [1,3-Dichloro-2-propanol]",LEL,rat [2]; [12],90 mg/kg/day
same,LOAEL,rat [2]; [12],> 90 mg/kg/day
same,NEL,rat [2]; [12],30 mg/kg/day
same,NOAEL,rat [2]; [12],≥ 90 mg/kg/day
same,LOAEL,rat [2]; [13],> 90 mg/kg/day
same,NEL,rat [2]; [13],10 mg/kg/day
same,NOAEL,rat [2]; [13],≥ 90 mg/kg/day
same,LEL,"rat [2]; group: maternal, systemic / in life observation / clinical signs / motor activity + systemic / in life observation / food consumption / food consumption + …",30 mg/kg/day
"OCC#CCO [2-Butyne-1,4-diol]",LEL,rat [3]; [14],80 mg/kg/day
same,LOAEL,rat [3]; [14],> 80 mg/kg/day
same,NEL,rat [3]; [14],40 mg/kg/day
same,NOAEL,rat [3]; [14],≥ 80 mg/kg/day
same,LEL,rat [3]; [15],80 mg/kg/day
same,LOAEL,rat [3]; [15],> 80 mg/kg/day
same,NEL,rat [3]; [15],40 mg/kg/day
same,NOAEL,rat [3]; [15],≥ 80 mg/kg/day
Nc1ncn[nH]1 [Amitrole],LEL,rabbit [4]; [16],40 mg/kg/day
same,LOAEL,rabbit [4]; [16],40 mg/kg/day
same,NEL,rabbit [4]; [16],4 mg/kg/day
same,NOAEL,rabbit [4]; [16],4 mg/kg/day
same,LEL,rabbit [4]; [17],40 mg/kg/day
same,LOAEL,rabbit [4]; [17],40 mg/kg/day
same,NEL,rabbit [4]; [18],4 mg/kg/day
same,NOAEL,rabbit [4]; [18],4 mg/kg/day
same,LEL,rabbit [5]; [19],1000 mg/kg/day
same,NEL,rabbit [5]; [19],< 1000 mg/kg/day
same,LOAEL,rabbit [5]; [20],2000 mg/kg/day
same,NOAEL,"rabbit [5]; group: developmental, systemic / in life observation / body weight / fetal weight + developmental / developmental malformation / bone / absent + developmental / …",1500 mg/kg/day
same,LOAEL,"rabbit [5]; group: maternal, systemic / in life observation / body weight / body weight + systemic / in life observation / body weight / body weight gain",2000 mg/kg/day
same,LEL,rabbit [5]; [21],2000 mg/kg/day
same,NEL,rabbit [5]; [21],1500 mg/kg/day
same,NOAEL,rabbit [5]; [21],1500 mg/kg/day
same,LEL,rabbit [6]; [20],80 mg/kg/day
same,LOAEL,rabbit [6]; [20],80 mg/kg/day
same,NEL,rabbit [6]; [20],20 mg/kg/day
same,NOAEL,rabbit [6]; [20],20 mg/kg/day
same,LEL,rabbit [6]; [22],80 mg/kg/day
same,LOAEL,rabbit [6]; [22],80 mg/kg/day
same,NEL,rabbit [6]; [22],20 mg/kg/day
same,NOAEL,rabbit [6]; [22],20 mg/kg/day
